This assay relates to naturally-occurring algae from water samples of the Clinch River. It is filed as cell-based, naturally occurring freshwater algae.

Structures are written as SMILES. Values joined by “and” are separate entries in the source; they are usually repeats but may differ in a detail not shown here. Identical values can stand only once.

Regarding `COP(=S)(OC)Oc1ccc([N+](=O)[O-])cc1` [MPt, Methyl Parathion], the “Percentage (%) decrease in photochemical yield” value was −5.41% and −7.80% and −3.19%.

Source of the values: patent US7591979B2 (priority 2003, dated 2009).
